Legend:
Rattus norvegicus = assay: Antiinflammatory activity in po dosed rat assessed as inhibition of reverse passive arthus reaction; assay type: functional
[1] = Selectivity ratio of mouse Kv1.3 to ratio of KCa3.1 (unknown origin)
[2] = target: Potassium voltage-gated channel subfamily A member 3 (Mus musculus, UniProt P16390); assay: Inhibition of mouse Kv1.3 expressed in L929 cells at -80 mV holding potential by whole cell patch-clamp method; assay type: cell-based
Sequence of Potassium voltage-gated channel subfamily A member 3 (P16390 whole entry): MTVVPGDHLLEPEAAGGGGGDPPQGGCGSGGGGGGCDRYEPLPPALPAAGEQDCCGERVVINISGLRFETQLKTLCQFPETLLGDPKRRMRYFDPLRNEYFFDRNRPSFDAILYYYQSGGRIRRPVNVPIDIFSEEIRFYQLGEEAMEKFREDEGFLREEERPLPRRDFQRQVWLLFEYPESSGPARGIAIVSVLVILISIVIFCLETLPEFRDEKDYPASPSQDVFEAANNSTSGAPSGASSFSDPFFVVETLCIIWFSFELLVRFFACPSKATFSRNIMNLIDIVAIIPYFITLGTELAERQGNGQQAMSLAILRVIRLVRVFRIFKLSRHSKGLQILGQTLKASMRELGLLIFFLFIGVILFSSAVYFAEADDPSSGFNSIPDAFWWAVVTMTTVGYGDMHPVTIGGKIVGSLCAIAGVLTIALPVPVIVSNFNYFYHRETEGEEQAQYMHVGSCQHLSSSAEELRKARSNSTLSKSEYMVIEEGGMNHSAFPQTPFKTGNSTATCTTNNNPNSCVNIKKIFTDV

Selectivity ratio [1]	EC50 [2] [nM]	Structure (SMILES)	ED50 (Rattus norvegicus) [mg/kg]
		Cc1cc(=O)c2c(O)cc(O)c([C@H]3CCN(C)C[C@H]3O)c2o1 [ROHITUKINE]	2.5
10	1000	COc1c(C(C)=O)c(O)c(OCCCc2ccccc2)c2occc12	

From ChEMBL document CHEMBL3813619, “Feeling Nature's PAINS: Natural Products, Natural Product Drugs, and Pan Assay Interference Compounds (PAINS)” (J Nat Prod, 2016)
